The values that follow come from patent publication US10517889B2, “Modulators of SMAD7 expression” (Ionis Pharmaceuticals, Inc., priority 2017, dated 2019).

Strand notation (5' to 3'): a small letter for the sugar, then the base; units joined by * are phosphorothioate-linked, units joined directly phosphodiester-linked; [ ] holds rarer units or linkages, { } end groups; capitals alone tell only the bases. k = constrained ethyl (cEt); [5mC] = 5-methylcytosine; d = 2'-deoxy (DNA)

The test system of data set [1] is human SMAD7 mRNA. The data set is described as follows: Antisense inhibition of human SMAD7 mRNA expression in Hep3B cells by 3-10-3 cEt gapmers, 10,000 nM, electroporation (Example 2). The data set is classed as cell-based. The following applies: Hep3B cells, electroporation with 10,000 nM antisense oligonucleotide, approximately 24 hours, SMAD7 mRNA by RT-PCR (RTS5062), relative to untreated control cells. The method in brief: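 Percent inhibition of SMAD7 mRNA, relative to untreated cells, after ~24 h exposure of electroporated Hep3B cells to 10,000 nM cEt gapmer; levels by qRT-PCR, corrected for total RNA.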

Data set [2] relates to human SMAD7 mRNA. The data set is described as follows: Dose-dependent inhibition of human SMAD7 mRNA expression in Hep3B cells (Example 3, Study 1 and 2). The format is cell-based. The following applies: electroporation; for % inhibition of SMAD7 mRNA expression: approximately 16 hours; for IC50: Study 2 (740-20000 nM). The method in brief:
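Hep3B cells, 20,000 per well, electroporated with antisense oligonucleotide at 0.31, 1.25, 5.00 or 20.00 μM (first series) or 0.74, 2.22, 6.67 or 20.00 μM (second series). After ~16 h, SMAD7 mRNA measured by RT-qPCR (RTS5062), normalised to RIBOGREEN total RNA. Percent inhibition vs untreated cells; IC50 derived.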

[3] abbreviates: 740 nM, Study 2, relative to untreated control cells.

Turning to “830095 (kT*kG*kA*dG*dT*dA*dA*dA*d[5mC]*dA*dA*dT*dA*k[5mC]*k[5mC]*k[5mC]; antisense) [compound 830095]”, the “% Inhibition” value with human SMAD7 mRNA [1] came out at 73%. Also, the “% inhibition of SMAD7 mRNA expression” value was found to be 3% in the data set on human SMAD7 mRNA [2] (setting [3]); 37% with human SMAD7 mRNA [2] (2220 nM, Study 2); 42% in the data set with human SMAD7 mRNA [2] (6670.0 nM, Study 2); 60% in the data set with human SMAD7 mRNA [2] (20000.0 nM, Study 2). In the data set on human SMAD7 mRNA [2], this substance gave an IC50 of 2 µM.

Turning to “830097 (k[5mC]*k[5mC]*kA*dT*d[5mC]*dT*dA*dA*d[5mC]*dA*dA*d[5mC]*dA*kT*k[5mC]*k[5mC]; antisense) [compound 830097]”, the “% Inhibition” value with human SMAD7 mRNA [1] stood at 68%. The “% inhibition of SMAD7 mRNA expression” value came to 29% in the data set with human SMAD7 mRNA [2] (setting [3]); 60% with human SMAD7 mRNA [2] (2220 nM, Study 2); 78% in the data set with human SMAD7 mRNA [2] (6670.0 nM, Study 2); 86% in the data set with human SMAD7 mRNA [2] (20000.0 nM, Study 2). The substance also registered a half-maximal inhibitory concentration (IC50) with human SMAD7 mRNA [2] of 1 µM.

For “830099 (kG*k[5mC]*k[5mC]*dT*dT*dT*dG*dG*dA*dA*dT*dT*dA*kG*kT*kA; antisense) [compound 830099]”, in the data set on human SMAD7 mRNA [1], the “% Inhibition” value came to 79%. In addition, the “% inhibition of SMAD7 mRNA expression” value with human SMAD7 mRNA [2] (setting [3]) is reported as 42%; with human SMAD7 mRNA [2] (2220 nM, Study 2), 56%; in the data set on human SMAD7 mRNA [2] (6670.0 nM, Study 2), 70%; with human SMAD7 mRNA [2] (20000.0 nM, Study 2), 92%. Besides, inhibition with human SMAD7 mRNA [2] was half-maximal at 10 µM (IC50).

With “830100 (kG*kG*kA*dG*d[5mC]*dT*d[5mC]*dA*dA*dA*d[5mC]*dT*dT*kT*kG*kA; antisense) [compound 830100]”, in the data set on human SMAD7 mRNA [1], the “% Inhibition” value is 61%. For the same substance, the “% inhibition of SMAD7 mRNA expression” value with human SMAD7 mRNA [2] (setting [3]) is listed as 3%; with human SMAD7 mRNA [2] (2220 nM, Study 2), 8%; in the data set on human SMAD7 mRNA [2] (6670.0 nM, Study 2) it was 38%; with human SMAD7 mRNA [2] (20000.0 nM, Study 2) it was 69%. In addition, the IC50 in the data set with human SMAD7 mRNA [2] was found to be 2 µM.

Regarding “830122 (kG*kA*kG*dA*dA*dT*d[5mC]*dA*dA*dG*d[5mC]*d[5mC]*d[5mC]*kT*kG*kG; antisense) [compound 830122]”, in the data set on human SMAD7 mRNA [1], the “% Inhibition” value came out at 57%. The “% inhibition of SMAD7 mRNA expression” value is on record as 28% with human SMAD7 mRNA [2] (setting [3]); 54% with human SMAD7 mRNA [2] (2220 nM, Study 2); 66% in the data set with human SMAD7 mRNA [2] (6670.0 nM, Study 2); 74% with human SMAD7 mRNA [2] (20000.0 nM, Study 2). The substance also had a half-inhibitory concentration (IC50) in the data set on human SMAD7 mRNA [2] of 3 µM.

In the case of “830128 (antisense kA*k[5mC]*k[5mC]*dT*d[5mC]*d[5mC]*dG*dA*dG*dG*d[5mC]*dA*d[5mC]*k[5mC]*kA*k[5mC]) [compound 830128]”, the “% Inhibition” value in the data set on human SMAD7 mRNA [1] was found to be 87%. Also, the “% inhibition of SMAD7 mRNA expression” value in the data set with human SMAD7 mRNA [2] (setting [3]) is 20%; with human SMAD7 mRNA [2] (2220 nM, Study 2), 55%; in the data set on human SMAD7 mRNA [2] (6670.0 nM, Study 2), 74%; in the data set with human SMAD7 mRNA [2] (20000.0 nM, Study 2) it was 85%. The substance also registered an IC50 in the data set with human SMAD7 mRNA [2] of 3 µM.

As for “830131 (antisense k[5mC]*k[5mC]*k[5mC]*dA*d[5mC]*d[5mC]*dT*d[5mC]*d[5mC]*dG*dA*dG*dG*k[5mC]*kA*k[5mC]) [compound 830131]”, the “% Inhibition” value with human SMAD7 mRNA [1] was determined as 68%. Besides, the “% inhibition of SMAD7 mRNA expression” value in the data set on human SMAD7 mRNA [2] (setting [3]) is given as 34%; in the data set on human SMAD7 mRNA [2] (2220 nM, Study 2) it was 48%; in the data set with human SMAD7 mRNA [2] (6670.0 nM, Study 2), 51%; with human SMAD7 mRNA [2] (20000.0 nM, Study 2) it was 61%. In addition, the IC50 in the data set with human SMAD7 mRNA [2] worked out at 5 µM.

“830135 (antisense kA*kA*kG*dT*dA*d[5mC]*dA*dA*dT*d[5mC]*dT*d[5mC]*d[5mC]*kT*kG*kG) [compound 830135]”: the “% Inhibition” value in the data set on human SMAD7 mRNA [1] turned out to be 64%. For the same substance, the “% inhibition of SMAD7 mRNA expression” value amounted to 16% in the data set on human SMAD7 mRNA [2] (setting [3]); 44% in the data set on human SMAD7 mRNA [2] (2220 nM, Study 2); 56% in the data set on human SMAD7 mRNA [2] (6670.0 nM, Study 2); 71% with human SMAD7 mRNA [2] (20000.0 nM, Study 2). The substance further returned a half-maximal inhibitory concentration (IC50) with human SMAD7 mRNA [2] of 5 µM.

As for “830137 (antisense kA*kT*kG*dA*dA*dA*dG*dT*dA*d[5mC]*dA*dA*dT*k[5mC]*kT*k[5mC]) [compound 830137]”, the “% Inhibition” value with human SMAD7 mRNA [1] amounted to 68%. Moreover, the “% inhibition of SMAD7 mRNA expression” value in the data set with human SMAD7 mRNA [2] (setting [3]) is given as 19%; with human SMAD7 mRNA [2] (2220 nM, Study 2), 46%; in the data set with human SMAD7 mRNA [2] (6670.0 nM, Study 2), 63%; with human SMAD7 mRNA [2] (20000.0 nM, Study 2) it was 84%. The IC50 in the data set on human SMAD7 mRNA [2] stood at 3 µM.

In the case of “830138 (antisense kG*kG*kA*dG*dT*dT*dG*d[5mC]*dA*dT*dG*d[5mC]*d[5mC]*kT*kT*kT) [compound 830138]”, the “% Inhibition” value in the data set on human SMAD7 mRNA [1] worked out at 71%. The “% inhibition of SMAD7 mRNA expression” value is listed as 0% in the data set on human SMAD7 mRNA [2] (setting [3]); 40% in the data set with human SMAD7 mRNA [2] (2220 nM, Study 2); 61% with human SMAD7 mRNA [2] (6670.0 nM, Study 2); 87% in the data set on human SMAD7 mRNA [2] (20000.0 nM, Study 2). In addition, the IC50 in the data set on human SMAD7 mRNA [2] stood at 5 µM.

“830142 (antisense kT*kG*kT*dG*d[5mC]*dA*d[5mC]*d[5mC]*dA*dG*dG*dT*dG*kA*kG*k[5mC]) [compound 830142]”: the “% Inhibition” value in the data set with human SMAD7 mRNA [1] was 60%. Also, the “% inhibition of SMAD7 mRNA expression” value is 13% in the data set on human SMAD7 mRNA [2] (setting [3]); 37% in the data set on human SMAD7 mRNA [2] (2220 nM, Study 2); 32% in the data set with human SMAD7 mRNA [2] (6670.0 nM, Study 2); 49% in the data set with human SMAD7 mRNA [2] (20000.0 nM, Study 2). Besides, in the data set on human SMAD7 mRNA [2], the IC50 is > 20 µM.

On to “830144 (antisense kG*kG*kG*dT*dG*dT*dG*d[5mC]*dA*d[5mC]*d[5mC]*dA*dG*kG*kT*kG) [compound 830144]”, for which the “% Inhibition” value with human SMAD7 mRNA [1] came out at 66%. Moreover, the “% inhibition of SMAD7 mRNA expression” value with human SMAD7 mRNA [2] (setting [3]) stood at 47%; in the data set on human SMAD7 mRNA [2] (2220 nM, Study 2), 68%; in the data set with human SMAD7 mRNA [2] (6670.0 nM, Study 2), 85%; in the data set on human SMAD7 mRNA [2] (20000.0 nM, Study 2) it was 96%. Moreover, in the data set on human SMAD7 mRNA [2], half-maximal inhibition (IC50) was put at 1 µM.

Take “830157 (antisense kG*kA*kA*d[5mC]*dT*dG*dT*dG*d[5mC]*d[5mC]*dT*d[5mC]*dA*kG*k[5mC]*kA) [compound 830157]”: the “% Inhibition” value with human SMAD7 mRNA [1] is reported as 70%. For the same substance, the “% inhibition of SMAD7 mRNA expression” value in the data set on human SMAD7 mRNA [2] (setting [3]) is on record as 24%; in the data set with human SMAD7 mRNA [2] (2220 nM, Study 2), 50%; with human SMAD7 mRNA [2] (6670.0 nM, Study 2) it was 73%; in the data set with human SMAD7 mRNA [2] (20000.0 nM, Study 2), 81%. The substance further came in with a 50% inhibitory concentration (IC50) in the data set with human SMAD7 mRNA [2] of 3 µM.

With “830163 (antisense k[5mC]*kA*kA*d[5mC]*dT*dG*dA*dA*dG*dG*dT*dG*dA*k[5mC]*k[5mC]*k[5mC]) [compound 830163]”, the “% Inhibition” value in the data set with human SMAD7 mRNA [1] stood at 60%. Further, the “% inhibition of SMAD7 mRNA expression” value with human SMAD7 mRNA [2] (setting [3]) amounted to 33%; with human SMAD7 mRNA [2] (2220 nM, Study 2), 49%; in the data set with human SMAD7 mRNA [2] (6670.0 nM, Study 2) it was 73%; with human SMAD7 mRNA [2] (20000.0 nM, Study 2) it was 84%. In addition, the IC50 with human SMAD7 mRNA [2] was found to be 2 µM.

“830168 (antisense kA*kT*kG*d[5mC]*dT*dT*dT*dT*dA*d[5mC]*dA*d[5mC]*dA*k[5mC]*k[5mC]*k[5mC]) [compound 830168]”: the “% Inhibition” value in the data set on human SMAD7 mRNA [1] is 81%. The “% inhibition of SMAD7 mRNA expression” value in the data set on human SMAD7 mRNA [2] (setting [3]) came to 31%; with human SMAD7 mRNA [2] (2220 nM, Study 2) it was 46%; in the data set with human SMAD7 mRNA [2] (6670.0 nM, Study 2) it was 65%; in the data set with human SMAD7 mRNA [2] (20000.0 nM, Study 2), 73%. The substance further yielded an IC50 with human SMAD7 mRNA [2] of 3 µM.

On to “830170 (antisense kG*k[5mC]*kT*d[5mC]*dT*dG*dT*dT*dT*dG*dG*dA*d[5mC]*kA*kA*kG) [compound 830170]”, for which the “% Inhibition” value with human SMAD7 mRNA [1] came to 60%. For the same substance, the “% inhibition of SMAD7 mRNA expression” value with human SMAD7 mRNA [2] (setting [3]) is 1%; in the data set with human SMAD7 mRNA [2] (2220 nM, Study 2), 39%; in the data set with human SMAD7 mRNA [2] (6670.0 nM, Study 2), 54%; in the data set on human SMAD7 mRNA [2] (20000.0 nM, Study 2), 67%. The substance also had an IC50 in the data set on human SMAD7 mRNA [2] of 6 µM.

The % Inhibition is how much of the control response was suppressed. By IC50 is commonly meant the concentration needed to halve the response being measured. Read a high IC50 as weaker potency.
